Results taken from patent US20120010075A1 (priority 2009, published 2012).
Where two headings read alike, the source gives them in different places.

Experiments:
[1] = system: Leptosphaeria nodorum (LEPTNO); assay: In vitro fungitoxicity of hydrazones with and without copper towards Leptosphaeria nodorum (Example 26); type: cell-based; conditions: 72 h at 25° C.; for inhibition of growth at 0.05 µg/mL: Parastagonospora nodorum, 72 h, read-out: LEPTNO % Inhn. Minus Copper Observed
[2] = system: Phytophthora infestans; type: in vivo, Phytophthora infestans on tomato; conditions: applied 24 h before inoculation, assessed 7 days after inoculation
[3] = copper-minus medium, test compound Concn. 0.05 μg/mL
[4] = copper-plus medium (CuCl2 10 μM), test compound Concn. 0.05 μg/mL
[5] = hydrazone 50 ppm with 50 μM CuCl2.2H2O, tomato late blight
[6] = compound 0.05 μg/mL, copper-minus medium
[7] = compound 0.05 μg/mL, copper-plus medium (CuCl2.2H2O)
[8] = hydrazone 50 ppm + 50 μM CuCl2.2H2O, tomato

Compound	inhibition of growth at 0.05 µg/mL [1, 3] [%]	LEPTNO % Inhn. Plus Copper Observed [1, 4] [%]	TLB % Control [2, 5] [%]	melting point [°C]	inhibition of growth at 0.05 µg/mL [1, 6] [%]	LEPTNO % Inhn. Plus Copper Observed [1, 7] [%]	TLB % Control [2, 8] [%]	LEPTNO % Inhn. Minus Copper Observed [1, 6] [%]
COc1ccc(C(=O)N/N=C(\C)c2cc(Cl)cc(Cl)c2O)c(O)c1 [Example 477]	6.2	83.4	93.0	310 to 312				
O=C(N/N=C/c1cc(Cl)ccc1O)c1cccc([N+](=O)[O-])c1 [Example 10]				224 to 227	6.9	97.2	96.0	
COc1ccc(C(=O)N/N=C(\C)c2ccc(OC)cc2O)cc1 [Example 482]	0	96.4	66.0	226 to 227				
C/C(=N\NC(=O)c1ccccc1C)c1ccc(Cl)cc1O [Example 252]				214 to 215	7.8	98.4	28.0	
O=C(N/N=C/c1cccc(C(F)(F)F)c1O)c1ccc(F)cc1 [Example 346]	30	96.7	96.0	187 to 188				
C/C(=N\NC(=O)c1ccc(C)cc1)c1cc(Cl)ccc1O [Example 507]	7.6	97.0	66.0	221 to 228				
O=C(N/N=C/c1cccc(Cl)c1O)c1ccc(F)cc1 [Example 426]	34.8	97.3	98.0	194 to 198				
O=C(N/N=C/c1c(C(F)(F)F)ccc(Cl)c1O)c1cccc(Cl)c1 [Example 451]	4.6	100.0	100.0	242 to 245				
C/C(=N\NC(=O)c1ccc(Br)cc1)c1cc(F)cc(F)c1O [Example 580]	3.1	98.1	97.0	268 to 270				
CC(C)c1ccc(C(=O)N/N=C/c2cc(Cl)cc(Cl)c2O)cc1 [Example 42]				270 to 272		93.2	60.0	9.2
COc1cccc(C(=O)N/N=C/c2cc(Br)ccc2O)c1C [Example 105]				199 to 201	5.8	95.2	74.6	
O=C(N/N=C/c1cc(C(F)(F)F)ccc1O)c1ccccc1C(F)(F)F [Example 444]	0	100.0	91.0	174 to 176				
C/C(=N\NC(=O)c1ccc(C)cc1)c1cc(Br)ccc1O [Example 290]				245 to 248	0.4	95.5	21.0	
O=C(N/N=C(\CCc1ccccc1)c1ccccc1O)c1c(Cl)cccc1Cl [Example 45]				204 to 208	0	96.2	49.0	
COc1cccc(/C(C)=N/NC(=O)c2ccc(C(F)(F)F)cc2)c1O [Example 466]	2.7	97.9	69.0	175 to 176				
O=C(N/N=C/c1ccc(Cl)c(Cl)c1O)c1ccccc1O [Example 362]	11.1	97.2	97.0	280 to 282				

Compound	inhibition of growth at 0.05 µg/mL [1, 3] [%]	LEPTNO % Inhn. Plus Copper Observed [1, 4] [%]	TLB % Control [2, 5] [%]	melting point [°C]	inhibition of growth at 0.05 µg/mL [1, 6] [%]	LEPTNO % Inhn. Plus Copper Observed [1, 7] [%]	TLB % Control [2, 8] [%]	LEPTNO % Inhn. Minus Copper Observed [1, 6] [%]
COc1cccc(/C(C)=N/NC(=O)c2ccccc2Br)c1O [Example 467]	0	95.7	80.0	245 to 247				
O=C(N/N=C/c1ccc(Cl)cc1O)c1cccc([N+](=O)[O-])c1 [Example 393]	4.3	96.1	73.0	233 to 238				
COc1ccc(/C(C)=N/NC(=O)c2cccc(C)c2)c(O)c1OC [Example 553]	0	93.2	88.0	158 to 162				
C/C(=N\NC(=O)c1ccc(Cl)cc1)c1cccc([N+](=O)[O-])c1O [Example 274]				241 to 251	0	96.3	89.0	
O=C(N/N=C/c1cc(Br)cc(F)c1O)c1ccccc1O [Example 409]	7.9	96.3	98.0	297 to 299				
Cc1ccc(C(=O)N/N=C/c2c(O)cccc2Cl)cc1 [Example 399]	5.8	97.1	88.0	250 to 252				
O=C(N/N=C/c1cc(C(F)(F)F)cc(C(F)(F)F)c1O)c1ccccc1C(F)(F)F [Example 341]	1.2	88.9	63.0	210 to 214				
C/C(=N\NC(=O)c1cccc(Cl)c1)c1cc(Br)cc(Br)c1O [Example 544]	6.9	97.6	97.0	255 to 256				
C/C(=N\NC(=O)c1ccc(Br)cc1)c1cccc([N+](=O)[O-])c1O [Example 522]	9.4	97.3	95.0	244 to 252				
C/C(=N\NC(=O)c1ccc(Cl)cc1O)c1cc(Cl)cc(Cl)c1O [Example 489]	15.8	97.8	85.0	314 to 317				
C/C(=N\NC(=O)c1ccccc1Cl)c1cc(F)cc(F)c1O [Example 576]	0.7	97.9	90.0	205 to 209				
O=C(N/N=C(\CCc1ccccc1)c1ccccc1O)c1ccccc1Cl [Example 49]				173 to 177	14.6	97.1	0.7	
Cc1ccc(C(=O)N/N=C(\CCc2ccccc2)c2ccccc2O)c(C)c1 [Example 31]				143 to 145	2.2	89.0	33.3	
COc1ccc(O)c(/C(C)=N/NC(=O)c2ccc(Cl)cc2)c1 [Example 267]				193 to 196	5.7	98.3	33.0	
C/C(=N\NC(=O)c1ccc(C(F)(F)F)cc1)c1cc(Cl)ccc1O [Example 513]	14	98.0	53.0	271 to 273				
